Source: patent US20260373149A1, “MIXED LINEAGE KINASE DOMAIN LIKE PSEUDOKINASE (MLKL) ACTIVATORS” (Trustees of Tufts College, priority 2022, published 2026)
Changes are numbered by the printed parent chain.

What was measured:
Assay type in all cases: cell-based
[1] = molecular target: T1, S345A/S347A mutant of MLKL (Mus musculus, UniProt Q9D2Y4, S345A/S347A); experiment: Viability of Mlkl-/- MEFs expressing S345A/S347A mutant of mouse MLKL-FLAG (CellTiter-Glo); settings: 5 μM; 50 ng/ml Dox 6 hr, then 24 hr; FIG. 6
T1 sequence (Q9D2Y4 1-472 S345A/S347A): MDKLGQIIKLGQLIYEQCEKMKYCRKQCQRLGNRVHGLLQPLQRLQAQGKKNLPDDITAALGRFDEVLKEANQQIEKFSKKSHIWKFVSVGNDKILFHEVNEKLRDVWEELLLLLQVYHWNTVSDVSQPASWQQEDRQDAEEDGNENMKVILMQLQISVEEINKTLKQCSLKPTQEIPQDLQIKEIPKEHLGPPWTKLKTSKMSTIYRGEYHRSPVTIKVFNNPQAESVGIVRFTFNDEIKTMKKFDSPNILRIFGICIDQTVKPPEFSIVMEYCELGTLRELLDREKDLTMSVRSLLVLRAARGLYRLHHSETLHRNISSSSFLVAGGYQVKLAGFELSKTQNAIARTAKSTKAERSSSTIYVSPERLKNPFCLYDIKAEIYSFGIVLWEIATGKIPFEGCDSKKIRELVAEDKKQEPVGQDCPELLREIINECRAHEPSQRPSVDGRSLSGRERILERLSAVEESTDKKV
Description: (§1) Plots show cell viability (%) versus MLKL mutant expressed. […] Cells conditionally expressing wild type and mutants of MLKL have been generated. M272W mutant of MLKL is active but predicted not to bind to MLKL activators. S345A/S347A mutant of MLKL lacks RIPK3 phosphorylation sites. Cells were treated with 50 ng/ml of Dox for 6 hr followed by MLKL activators (left panels) or TNFα/IDN6556 (right panels). The latter combination is a canonical inducer of necroptosis through RIPK3 activation. 5 μM ALD-6-85 and SS-1-127 were used in top and bottom panels, respectively.
(§2) The activity of ALD-6-85 was tested in the cells expressing either wild type MLKL or mutant expressing a bulky Trp residue in place of M272 gatekeeper residue. This mutation is expected to disrupt binding of the drug to MLKL. […] To ensure that observed reduction in killing is not due to the intrinsically lower pro-death activity of M272W mutant, cells were also stimulated with TNF+IDN, inducing necroptosis through a canonical TNFR1-RIPK1-RIPK3-MLKL pathway. […] We also generated MEFs expressing S345A, S347A double mutant of mouse MLKL.

[2] = tested on: transformed mouse embryonic fibroblasts with genetic deletions of RIPK3 and MLKL genes; experiment: Viability of transformed mouse embryonic fibroblasts with genetic deletions of RIPK3 and MLKL genes; settings: MEFs with genetic deletions of RIPK3 and MLKL; FIG. 3
Description: Viability of transformed mouse embryonic fibroblasts with genetic deletions of RIPK3 and MLKL genes and treated with SS-1-127 are shown. Affinities of select MLKL activators against recombinant human RIPK1, RIPK3, and MLKL were determined by DiscoveRx.
The compounds described herein are capable of directly activating the downstream executioner of necroptosis, MLKL, thus bypassing a requirement for RIPK3 (FIG. 2).

[3] = molecular target: T2, E239Q mutant of mouse MLKL (Mus musculus, UniProt Q9D2Y4, E239Q); experiment: Viability of Mlkl-/- MEFs expressing wild type or E239Q mutant of mouse MLKL-FLAG (CellTiter-Glo); settings: E239Q vs wild type mouse MLKL; 50 ng/ml Dox 6 hr, then compound 24 hr; FIG. 7
T2 construct: expressed in transfected cells; host or cells: Mlkl-/- mouse embryonic fibroblasts (MEFs), lentiviral, doxycycline-inducible
T2 sequence (Q9D2Y4 1-472 E239Q): T1 sequence (Q9D2Y4 1-472 S345A/S347A) with E239Q, A345S, A347S
Description: Mlkl^−/− mouse embryonic fibroblasts (MEFs) were stably infected with lentiviral vector encoding wild type and E239Q mutant of mouse MLKL-FLAG under the control of the Doxocyclin (Dox)-inducible promoter. […] After 24 hr, cell viability at the end of treatment was determined using CellTiter-Glo Viability assay (Promega).

M272W mutant of MLKL = molecular target: T3, M272W mutant of MLKL (Mus musculus, UniProt Q9D2Y4, M272W); experiment: Viability of Mlkl-/- MEFs expressing M272W mutant of mouse MLKL-FLAG (CellTiter-Glo); settings: 5 μM; 50 ng/ml Dox 6 hr, then 24 hr; FIG. 6
T3 sequence (Q9D2Y4 1-472 M272W): T1 sequence (Q9D2Y4 1-472 S345A/S347A) with M272W, A345S, A347S
Description: as §1, §2

Row | Structure (SMILES) | Effect of S345A, S347A double mutation on killing by SS-1-127 [1] | Cell death induced by SS-1-127: dependence on MLKL and RIPK3 [2] | Activity / cell death with E239Q mutation compared to wild type MLKL [3] | Death in cells expressing M272W MLKL compared to wild type (M272W mutant of MLKL)
1 | CCN(CC)CCOc1ccc(Nc2ncc3cc(-c4ccc(O)c(C#N)c4)c(=O)n(C)c3n2)cc1 [SS-1-127, 5-(2-((4-(2-(Diethylamino)ethoxy)phenyl)amino)-8-methyl-7-oxo-7,8-dihydropyrido[2,3-d]pyrimidin-6-yl)-2-hydroxybenzonitrile] | minor effect on killing | dependent on MLKL expression and independent from RIPK3 | much improved activity when combined with E239Q mutation compared to wild type MLKL | –
2 | CCN(CC)CCOc1ccc(Nc2ncc3cc(-c4ccc(O)c([N+](=O)[O-])c4)c(=O)n(C)c3n2)cc1 [ALD-6-85] | – | – | – | induces reduced death in the cells expressing M272W MLKL compared to wild type protein
